Reference: patent US10669272B2, “Substituted naphthyridinone compounds useful as T cell activators” (BRISTOL-MYERS SQUIBB COMPANY, priority 2018, dated 2020)
Where two headings read alike, the source gives them in different places.

Legend:
human DGKζ = target: T1, human DGKζ (Homo sapiens, UniProt Q13574); assay: DGKζ LIPGLO assay (extruded liposome substrate), in vitro DGK inhibition; type: biochemical; settings: read-out: DGKz LIPGLO IC50
T1 construct: TVMV protease cleavage site (C); Hexa-His (C); made in house; host or cells: Sf9 insect cells (baculovirus, Bac-to-Bac)

Human venous whole blood = assay: Human whole blood IFN-γ assay; type: cell-based; settings: human whole blood, read-out: INFg Whole Blood Normalized Agonist EC50;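 note: blood from healthy donors exposed to compound for 1 h before stimulation with anti-CD3 and anti-CD28 at 1 µg/mL each, IFN-γ quantified in supernatant by AlphaLISA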
Method: Human Whole Blood IFN-γ Assay
Human venous whole blood (22.5 μL per well), obtained from healthy donors, was pre-treated with compounds for one hour at 37° C. in a humidified 95% air/5% CO2 incubator. The blood was stimulated with 2.5 μL anti-human CD3 and anti-CD28 mAb at a final concentration of 1 μg/mL each for 24 hours at 37° C. IFN-γ in the supernatants was measured using AlphLISA kit (Cat # AL217).

naïve human CD8 T cells = assay: Human CD8 T cells IFN-γ assay; type: cell-based; settings: read-out: HuCD8 INFG Normalized EC50;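 note: Naïve human CD8 T cells stimulated with plate-bound anti-CD3 and soluble anti-CD28, IFN-γ in supernatant quantified by AlphaLISA and converted to pg/mL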
human DGKα = target: T2, human DGKα (Homo sapiens, UniProt P23743); assay: DGKα LIPGLO assay (extruded liposome substrate), in vitro DGK inhibition; type: biochemical; settings: read-out: DGKa LIPGLO IC50
T2 construct: TVMV protease cleavage site (C); Hexa-His (C); made in house; host or cells: Sf9 insect cells (baculovirus, Bac-to-Bac)

[1] = Homo sapiens, 24 h, normalized to 3 μM reference compound with anti-CD3 plus anti-CD28 as 100% activation
[2] = Homo sapiens, T-cell, 20 h, normalized to 3 μM reference compound with anti-CD3 plus anti-CD28 as 100% activation
[3] = normalized to 3 μM reference compound with anti-CD3 plus anti-CD28 as 100% activation
[4] = anti-CD3 plus anti-CD28, 24 hours, 3 μM reference compound = 100% activation
[5] = Homo sapiens, T-cell, 20 h, naïve human CD8 T cells, anti-CD3 plus anti-CD28, 3 μM reference compound = 100% activation
[6] = Homo sapiens, 24 h, anti-CD3 plus anti-CD28, 24 hours, 3 μM reference compound = 100% activation

T2 sequence (P23743 with tags, fused parts or gaps): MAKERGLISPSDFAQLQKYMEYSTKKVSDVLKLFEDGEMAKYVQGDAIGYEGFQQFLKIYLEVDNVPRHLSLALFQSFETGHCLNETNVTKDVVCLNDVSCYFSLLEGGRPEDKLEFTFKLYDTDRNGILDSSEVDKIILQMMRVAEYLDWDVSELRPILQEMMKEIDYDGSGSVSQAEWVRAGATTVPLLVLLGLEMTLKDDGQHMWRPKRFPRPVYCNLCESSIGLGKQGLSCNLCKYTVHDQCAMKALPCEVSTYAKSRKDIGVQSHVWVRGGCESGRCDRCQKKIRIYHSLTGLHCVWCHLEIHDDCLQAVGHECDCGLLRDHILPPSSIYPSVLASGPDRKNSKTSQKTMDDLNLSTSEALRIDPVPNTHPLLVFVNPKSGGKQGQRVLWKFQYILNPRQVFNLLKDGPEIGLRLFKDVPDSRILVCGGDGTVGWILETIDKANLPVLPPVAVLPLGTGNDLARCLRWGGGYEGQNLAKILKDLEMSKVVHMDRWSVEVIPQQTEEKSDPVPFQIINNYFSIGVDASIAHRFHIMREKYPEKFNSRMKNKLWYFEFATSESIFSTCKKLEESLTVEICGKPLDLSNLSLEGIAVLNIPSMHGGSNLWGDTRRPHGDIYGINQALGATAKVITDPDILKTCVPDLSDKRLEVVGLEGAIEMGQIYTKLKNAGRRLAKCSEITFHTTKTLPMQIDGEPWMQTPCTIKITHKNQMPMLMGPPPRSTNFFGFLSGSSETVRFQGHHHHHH
T1 sequence (Q13574 with tags, fused parts or gaps isoform Q13574-4): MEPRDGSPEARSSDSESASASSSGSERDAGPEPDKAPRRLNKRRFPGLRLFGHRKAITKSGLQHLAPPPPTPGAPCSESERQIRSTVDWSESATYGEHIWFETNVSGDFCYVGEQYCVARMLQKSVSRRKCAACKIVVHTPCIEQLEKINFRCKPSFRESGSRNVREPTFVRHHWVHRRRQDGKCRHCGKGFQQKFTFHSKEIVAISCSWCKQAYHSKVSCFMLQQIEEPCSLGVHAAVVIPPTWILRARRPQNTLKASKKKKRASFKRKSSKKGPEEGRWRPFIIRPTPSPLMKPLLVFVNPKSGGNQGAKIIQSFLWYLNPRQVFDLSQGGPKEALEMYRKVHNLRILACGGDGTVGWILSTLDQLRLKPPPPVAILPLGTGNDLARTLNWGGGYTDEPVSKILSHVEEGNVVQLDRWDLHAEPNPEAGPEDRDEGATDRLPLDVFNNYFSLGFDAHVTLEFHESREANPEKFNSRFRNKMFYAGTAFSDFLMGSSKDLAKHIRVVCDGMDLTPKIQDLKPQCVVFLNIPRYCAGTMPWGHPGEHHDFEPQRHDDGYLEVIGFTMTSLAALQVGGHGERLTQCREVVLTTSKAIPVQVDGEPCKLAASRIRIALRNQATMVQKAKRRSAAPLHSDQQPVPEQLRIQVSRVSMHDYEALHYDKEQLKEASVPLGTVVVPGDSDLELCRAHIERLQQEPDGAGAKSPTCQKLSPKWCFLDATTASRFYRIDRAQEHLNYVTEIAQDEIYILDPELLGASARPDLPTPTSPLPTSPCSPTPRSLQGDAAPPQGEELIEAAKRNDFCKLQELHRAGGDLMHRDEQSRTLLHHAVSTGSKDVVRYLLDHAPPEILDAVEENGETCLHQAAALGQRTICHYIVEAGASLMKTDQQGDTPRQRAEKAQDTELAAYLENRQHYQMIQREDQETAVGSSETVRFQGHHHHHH

| SMILES | IC50 (human DGKζ; liposome (LIPGLO) assay) | EC50 (Human venous whole blood; [1]) | EC50 (naïve human CD8 T cells; [2]) | IC50 (human DGKα; liposome (LIPGLO) assay) | EC50 (Human venous whole blood; [3]) | further results |
| --- | --- | --- | --- | --- | --- | --- |
| C[C@@H]1CN(c2cc(=O)n(C)c3ccc(C#N)nc23)[C@@H](C)CN1C(c1ccc(F)c(F)c1)c1ccccn1 (single isomer, unassigned) [Example 375] | 2700 nM | 330 nM | 49 nM | 270 nM | – | – |
| C[C@@H]1CN(c2c(Cl)c(=O)n(C)c3ccc(C#N)nc23)[C@@H](C)CN1C(c1ccccc1)c1ccc(F)cc1 (single isomer, unassigned) [Example 218] | > 250000 nM | – | – | 9500 nM | 20000 nM | EC50 (naïve human CD8 T cells; [3]): 10000 nM |
| C[C@@H]1CN(c2cc(=O)n(C)c3ccc(C#N)nc23)[C@@H](C)CN1C(c1ccccc1)c1ccc(OC(F)(F)F)cc1 (single isomer, unassigned) [Example 221] | 750 nM | – | 42 nM | 1200 nM | 3000 nM | – |
| C[C@@H]1CN(c2c(C#N)c(=O)n(C)c3ccc(C#N)nc23)CCN1C(c1ccc(F)cc1)c1cccc(C(F)(F)F)n1 (single isomer, unassigned) [Example 922] | – | – | – | – | – | IC50 (human DGKζ; DGKζ liposome (LIPGLO) assay): 780 nM; EC50 (Human venous whole blood; [4]): 430 nM; EC50 (naïve human CD8 T cells; [5]): 160 nM; IC50 (human DGKα; DGKα liposome (LIPGLO) assay): 1500 nM |
| Cc1ccc(C(c2cccc(F)c2)N2C[C@H](C)N(c3cc(=O)n(C)c4ccc(C#N)nc34)C[C@H]2C)nc1 (single isomer, unassigned) [Example 215] | 530 nM | – | – | 660 nM | 2100 nM | EC50 (naïve human CD8 T cells; [3]): 33 nM |
| CCOC[C@@H]1CN(c2cc(=O)n(C)c3ccc(C#N)nc23)[C@@H](C)CN1C(c1ccc(F)cc1)c1ccc(F)cc1 [Example 1164, 8-((2S,5S)-4-(bis(4-fluorophenyl)methyl)-5-(ethoxymethyl)-2-methylpiperazin-1-yl)-5-methyl-6-oxo-5,6-dihydro-1,5-naphthyridine-2-carbonitrile] | 670 nM | 340 nM | 17 nM | 18000 nM | – | – |
| CCc1cc(F)ccc1C(c1ccc(F)cc1)N1C[C@H](C)N(c2cc(=O)n(C)c3ccc(OC)nc23)C[C@H]1C (single isomer, unassigned) [Example 234] | 8700 nM | – | – | 240000 nM | 20000 nM | EC50 (naïve human CD8 T cells; [3]): 2500 nM |
| Cc1ccc(C(c2cccc(Cl)c2)N2C[C@H](C)N(c3cc(=O)n(C)c4ccc(C#N)nc34)C[C@H]2C)nc1 (single isomer, unassigned) [Example 372] | 270 nM | – | – | 550 nM | 270 nM | EC50 (naïve human CD8 T cells; [3]): 22 nM |
| C[C@@H]1CN(c2cc(=O)n(C)c3ccc(C#N)nc23)[C@@H](C)CN1Cc1c(F)cc(F)cc1F [Example 246, 8-[(2S,5R)-2,5-dimethyl-4-[(2,4,6-trifluorophenyl)methyl]piperazin-1-yl]-5-methyl-6-oxo-5,6-dihydro-1,5-naphthyridine-2-carbonitrile] | 460 nM | 550 nM | 27 nM | 120 nM | – | – |
| Cc1ccc(C(c2ccc(Cl)cn2)N2C[C@H](C)N(c3cc(=O)n(C)c4ccc(C#N)nc34)C[C@H]2C)cc1 (single isomer, unassigned) [Example 199] | 100 nM | – | 61 nM | 100 nM | 250 nM | – |
| CC(c1c(F)cccc1F)N1C[C@H](C)N(c2cc(=O)n(C)c3ccc(C#N)nc23)C[C@H]1C (stereo partly drawn) [Example 256, 8-[(2S,5R)-4-[1-(2,6-difluorophenyl)ethyl]-2,5-dimethylpiperazin-1-yl]-5-methyl-6-oxo-5,6-dihydro-1,5-naphthyridine-2-carbonitrile] | 570 nM | – | 22 nM | 140 nM | – | EC50 (Human venous whole blood; Homo sapiens, normalized to 3 μM reference compound with anti-CD3 plus anti-CD28 as 100% activation): 650 nM |
| C[C@@H]1CN(c2cc(=O)n(C)c3ccc(C#N)nc23)[C@@H](C)CN1C(c1ccc(F)cc1)c1ccc(Cl)cn1 (single isomer, unassigned) [Example 211] | 150 nM | 800 nM | 29 nM | 39 nM | – | – |
| C[C@@H]1CN(c2cc(=O)n(C)c3ccc(C#N)nc23)[C@@H](C)CN1Cc1c(F)cccc1F [Example 271, 8-[(2S,5R)-4-[(2,6-difluorophenyl)methyl]-2,5-dimethylpiperazin-1-yl]-5-methyl-6-oxo-5,6-dihydro-1,5-naphthyridine-2-carbonitrile] | 1900 nM | 1400 nM | 550 nM | 130 nM | – | – |
| C[C@@H]1CN(c2c(C#N)c(=O)n(C)c3ccc(C#N)nc23)CCN1C(c1ccc(F)cc1)c1ccc(Cl)cn1 (stereo partly drawn) [Example 932] | – | – | – | – | – | IC50 (human DGKζ; DGKζ liposome (LIPGLO) assay): 1200 nM; EC50 (Human venous whole blood; [6]): 310 nM; EC50 (naïve human CD8 T cells; naïve human CD8 T cells, anti-CD3 plus anti-CD28, 3 μM reference compound = 100% activation): 52 nM; IC50 (human DGKα; DGKα liposome (LIPGLO) assay): 150 nM |
| CC[C@H]1CN(C(c2ccc(F)cc2)c2ncccc2F)[C@H](CC)CN1c1cc(=O)n(C)c2ccc(C#N)nc12 (single isomer, unassigned) [Example 1037] | 280 nM | – | 14 nM | 49 nM | 130 nM | – |
| C[C@@H]1CN(c2cc(=O)n(C)c3ccc(C#N)nc23)[C@@H](C)CN1C(c1ccc(F)cc1)c1nc(C(C)(C)C)no1 (stereo partly drawn) [Example 737] | – | – | – | – | – | IC50 (human DGKζ; DGKζ liposome (LIPGLO) assay): 130 nM; EC50 (Human venous whole blood; [6]): 43 nM; EC50 (naïve human CD8 T cells; [5]): 0.31 nM; IC50 (human DGKα; DGKα liposome (LIPGLO) assay): 1100 nM |
| C[C@@H]1CN(c2cc(=O)n(C)c3ccc(C#N)nc23)[C@@H](C)CN1Cc1ccc(OC(F)(F)F)cc1F [Example 243, 8-[(2S,5R)-4-{[2-fluoro-4-(trifluoromethoxy)phenyl]methyl}-2,5-dimethylpiperazin-1-yl]-5-methyl-6-oxo-5,6-dihydro-1,5-naphthyridine-2-carbonitrile] | 1900 nM | 1500 nM | 160 nM | 290 nM | – | – |
| Cc1cccc(C(c2ccc(F)cc2)N2C[C@H](C)N(c3cc(=O)n(C)c4ccc(C#N)nc34)C[C@H]2C)c1 (single isomer, unassigned) [Example 223] | 34 nM | 870 nM | 29 nM | 280 nM | – | – |
| CC[C@@H]1CN(c2cc(=O)n(C)c3ccc(C#N)nc23)[C@@H](C)CN1C(c1ccc(F)cc1)c1ncccc1F (stereo partly drawn) [Example 1104] | 900 nM | 300 nM | – | 250 nM | – | EC50 (naïve human CD8 T cells; [3]): 56 nM |
| C[C@@H]1CN(c2cc(=O)n(C)c3ccc(C#N)nc23)[C@@H](C)CN1Cc1cccc(C(F)(F)F)n1 [Example 278, 8-[(2S,5R)-2,5-dimethyl-4-{[6-(trifluoromethyl)pyridin-2-yl]methyl}piperazin-1-yl]-5-methyl-6-oxo-5,6-dihydro-1,5-naphthyridine-2-carbonitrile] | 1500 nM | 3200 nM | 2200 nM | 870 nM | – | – |
| CC(C)Oc1ncccc1C(c1ccc(F)cc1)N1C[C@H](C)N(c2cc(=O)n(C)c3ccc(C#N)nc23)C[C@H]1C (single isomer, unassigned) [Example 208] | 680 nM | – | – | 11000 nM | 1000 nM | EC50 (naïve human CD8 T cells; [3]): 250 nM |
| Cc1cccc(C)c1CN1C[C@H](C)N(c2cc(=O)n(C)c3ccc(C#N)nc23)C[C@H]1C [Example 265, 8-[(2S,5R)-4-[(2,6-dimethylphenyl)methyl]-2,5-dimethylpiperazin-1-yl]-5-methyl-6-oxo-5,6-dihydro-1,5-naphthyridine-2-carbonitrile] | 2600 nM | 3800 nM | 1600 nM | 23000 nM | – | – |
| C[C@@H]1CN(c2c(C#N)c(=O)n(C)c3ccc(C#N)nc23)CCN1C(c1ccc(F)cc1)c1ccccn1 (single isomer, unassigned) [Example 918] | – | – | – | – | – | IC50 (human DGKζ; DGKζ liposome (LIPGLO) assay): 380 nM; EC50 (Human venous whole blood; [4]): 380 nM; EC50 (naïve human CD8 T cells; [5]): 130 nM; IC50 (human DGKα; DGKα liposome (LIPGLO) assay): 52 nM |
| C[C@@H]1CN(c2cc(=O)n(C)c3ccc(C#N)nc23)[C@@H](C)CN1C(c1ccc(F)cc1)c1cc(F)cc(F)c1 (stereo partly drawn) [Example 289, 8-[(2S,5R)-4-[(3,5-difluorophenyl)(4-fluorophenyl)methyl]-2,5-dimethylpiperazin-1-yl]-5-methyl-6-oxo-5,6-dihydro-1,5-naphthyridine-2-carbonitrile] | 760 nM | 1000 nM | 220 nM | 3000 nM | – | – |
| C[C@@H]1CN(c2cc(=O)n(C)c3ccc(C#N)nc23)[C@@H](C)CN1C(c1ccc(F)cc1)c1cocn1 (single isomer, unassigned) [Example 710] | 2600 nM | – | 22 nM | 120 nM | 550 nM | – |
| C[C@@H]1CN(c2cc(=O)n(C)c3ccc(C#N)nc23)[C@@H](C)CN1Cc1c(F)cccc1Cl [Example 261, 8-[(2S,5R)-4-[(2-chloro-6-fluorophenyl)methyl]-2,5-dimethylpiperazin-1-yl]-5-methyl-6-oxo-5,6-dihydro-1,5-naphthyridine-2-carbonitrile] | 1100 nM | 880 nM | 230 nM | 390 nM | – | – |
| CCc1ccccc1C(c1ccc(F)cc1)N1C[C@H](C)N(c2cc(=O)n(C)c3ccc(OC)nc23)C[C@H]1C (single isomer, unassigned) [Example 235] | 4800 nM | 20000 nM | – | 81000 nM | – | EC50 (naïve human CD8 T cells; [3]): 1500 nM |
